Experimental data published in patent US4394503A, “Cephalosporin derivatives” (priority 1981, dated 1983).
In brackets after ≈: the same amount, converted by molar mass. Where two headings read alike, the source gives them in different places.

Tests used:
[1] = test system: Penicillin-resistant S. aureus (Gp-Ib); test: In vitro antibacterial activity, two-fold agar dilution, Mueller-Hinton agar (Table 1), group Gp-Ib; assay type: cell-based
[2] = test system: Cephalothin-sensitive E. coli, Kl. pneumoniae and Pr. mirabilis (Gn-Ia); test: In vitro antibacterial activity, two-fold agar dilution, Mueller-Hinton agar (Table 1), group Gn-Ia; assay type: cell-based; details: read-out: Geometric Mean of MIC
[3] = test system: Cephalothin-resistant E. coli and Kl. pneumoniae (Gn-Ib); test: In vitro antibacterial activity, two-fold agar dilution, Mueller-Hinton agar (Table 1), group Gn-Ib; assay type: cell-based, E. coli (3) and Kl. pneumoniae (3); details: Escherichia coli, read-out: Geometric Mean of MIC
[4] = test system: Pr. morganii, Ent. cloacae and Ser. marcescens (Gn-II); test: In vitro antibacterial activity, two-fold agar dilution, Mueller-Hinton agar (Table 1), group Gn-II; assay type: cell-based, Pr. morganii (1), Ent. cloacae (2) and Ser. marcescens (2); details: read-out: Geometric Mean of MIC
Ps. aeruginosa (Gn-III) = test: In vitro antibacterial activity, two-fold agar dilution, Mueller-Hinton agar (Table 1), group Gn-III; assay type: cell-based; details: Pseudomonas aeruginosa; read-out: Geometric Mean of MIC
P. mirabilis A9554 = test: MIC against selected test organisms (Table 2); assay type: cell-based; details: Proteus mirabilis
E. coli A15148 = test: MIC against selected test organisms (Table 2); assay type: cell-based; details: Escherichia coli
K. pneumoniae A 9867 = test: MIC against selected test organisms (Table 2); assay type: cell-based; details: Klebsiella pneumoniae
P. morganii A9553 = test: MIC against selected test organisms (Table 2); assay type: cell-based; details: Morganella morganii
S. marcescens A20019 = test: MIC against selected test organisms (Table 2); assay type: cell-based; details: Serratia marcescens
P. aeruginosa A15150 = test: MIC against selected test organisms (Table 2); assay type: cell-based; details: Pseudomonas aeruginosa
P. aeruginosa A9843 [5] = test: MIC against selected test organisms (Table 2); assay type: cell-based; details: Pseudomonas aeruginosa
P. aeruginosa A20717 = test: MIC against selected test organisms (Table 2); assay type: cell-based; details: Pseudomonas aeruginosa
B. fragilis A20928-1 = test: MIC against selected test organisms (Table 2); assay type: cell-based; details: Bacteroides fragilis
B. fragilis A22021 = test: MIC against selected test organisms (Table 2); assay type: cell-based; details: Bacteroides fragilis, A22021, read-out: Minimum Inhibitory Concentration
B. fragilis A22693 = test: MIC against selected test organisms (Table 2); assay type: cell-based; details: Bacteroides fragilis, A22693, read-out: Minimum Inhibitory Concentration
B. fragilis A22695 = test: MIC against selected test organisms (Table 2); assay type: cell-based; details: Bacteroides fragilis
B. fragilis A22533 = test: MIC against selected test organisms (Table 2); assay type: cell-based; details: Bacteroides fragilis
C. difficile A21675 = test: MIC against selected test organisms (Table 2); assay type: cell-based; details: Clostridioides difficile
P. acnes A21933 = test: MIC against selected test organisms (Table 2); assay type: cell-based; details: Cutibacterium acnes
S. pneumoniae = test: In vitro activity against species of Streptococcus, Neisseria and Haemophilus (Table 3); assay type: cell-based; details: read-out: Geometric Mean of MIC
N. gonorrhoeae = test: as above; assay type: cell-based; details: Neisseria gonorrhoeae, read-out: Geometric Mean of MIC
N. meningitidus = test: as above; assay type: cell-based; details: read-out: Geometric Mean of MIC
H. influenzae(AMP-R) = test: as above; assay type: cell-based; details: Haemophilus influenzae, read-out: Geometric Mean of MIC
H. influenzae(AMP-S) = test: as above; assay type: cell-based; details: Haemophilus influenzae, read-out: Geometric Mean of MIC
E. cloacae A9656 = test: Therapeutic efficacy in experimentally infected mice (Table 5); assay type: in vivo; details: Enterobacter cloacae, A9656, im, 120 h; i.m., immediately after intraperitoneal challenge, 5 days observation; read-out: PD50 (median protective dose)
Protocol: (§1) The test compounds were administered intramuscularly immediately after the bacterial challenge.

E. coli Juhl = test: as above; assay type: in vivo; details: Escherichia coli, im, 120 h; i.m., immediately after intraperitoneal challenge, 5 days observation; read-out: PD50 (median protective dose)
Protocol: as §1

P. aeruginosa A9843 [6] = test: as above; assay type: in vivo; details: Pseudomonas aeruginosa, A9843, im, 120 h; i.m., immediately after intraperitoneal challenge, 5 days observation; read-out: PD50 (median protective dose)
Protocol: as §1

Pr. mirabilis A9900 = test: as above; assay type: in vivo; details: Proteus mirabilis, A9900, im, 120 h; i.m., immediately after intraperitoneal challenge, 5 days observation; read-out: PD50 (median protective dose)
Protocol: as §1

S. aureus BX-1633 = test: as above; assay type: in vivo; details: Staphylococcus aureus, BX1633, im, 120 h; i.m., immediately after intraperitoneal challenge, 5 days observation; read-out: PD50 (median protective dose)
Protocol: as §1

S. aureus Smith = test: as above; assay type: in vivo; details: Staphylococcus aureus, im, 120 h; i.m., immediately after intraperitoneal challenge, 5 days observation; read-out: PD50 (median protective dose)
Protocol: as §1

With `CSc1cc[n+](CC2=C(C(=O)[O-])N3C(=O)C(NC(=O)/C(=N\OC(C)(C)C(=O)O)c4csc(N)n4)C3SC2)cc1` (centres unmarked) [Example 2, 7-[(Z)-2-(2-Aminothiazol-4-yl)-2-(2-carboxyprop-2-oxyimino)-acetamido]-3-[(4-methylthiopyridinium)methyl]-3-cephem-4-carboxylate] the MIC ([1]; Staphylococcus aureus; read-out: Geometric Mean of MIC) was 6.3 µg/mL (≈ 10.6 µM), the MIC [2] was 0.066 µg/mL (≈ 0.111 µM) and the MIC [3] was 0.89 µg/mL (≈ 1.5 µM). For the same compound, the MIC [4] was 1.5 µg/mL (≈ 2.53 µM), the MIC (Ps. aeruginosa (Gn-III)) was 3.1 µg/mL (≈ 5.23 µM) and the MIC (P. mirabilis A9554; A9554, Gn-Ia, CET-S, read-out: Minimum Inhibitory Concentration) was 0.05 µg/mL (≈ 0.0844 µM). It also gave an MIC (E. coli A15148; A15148, Gn-Ib, CET-R, read-out: Minimum Inhibitory Concentration) of 0.2 µg/mL (≈ 0.337 µM), an MIC (K. pneumoniae A 9867; A9867, Gn-Ib, CET-R, read-out: Minimum Inhibitory Concentration) of 3.1 µg/mL (≈ 5.23 µM) and an MIC (P. morganii A9553; A9553, Gn-II, CET-R, read-out: Minimum Inhibitory Concentration) of 1.6 µg/mL (≈ 2.7 µM). The MIC (S. marcescens A20019; A20019, Gn-II, CET-R, read-out: Minimum Inhibitory Concentration) was 0.4 µg/mL (≈ 0.675 µM), the MIC (P. aeruginosa A15150; A15150, Gn-III, CET-R, read-out: Minimum Inhibitory Concentration) was 1.6 µg/mL (≈ 2.7 µM) and the MIC (P. aeruginosa A9843 [5]; A9843, Gn-III, CET-R, read-out: Minimum Inhibitory Concentration) was 1.6 µg/mL (≈ 2.7 µM). The MIC (P. aeruginosa A20717; A20717, Gn-III, CET-R, read-out: Minimum Inhibitory Concentration) was 6.3 µg/mL (≈ 10.6 µM), the MIC (B. fragilis A20928-1; A209281, Anaerobe, CET-S, read-out: Minimum Inhibitory Concentration) was 3.1 µg/mL (≈ 5.23 µM) and the MIC (B. fragilis A22021) was 12.5 µg/mL (≈ 21.1 µM). The MIC (B. fragilis A22693) was 12.5 µg/mL (≈ 21.1 µM), the MIC (B. fragilis A22695; A22695, Anaerobe, AMP-R, read-out: Minimum Inhibitory Concentration) was 50 µg/mL (≈ 84.4 µM) and the MIC (B. fragilis A22533; A22533, Anaerobe, AMP-R, read-out: Minimum Inhibitory Concentration) was over 100 µg/mL. The MIC (C. difficile A21675; A21675, Anaerobe, CLDM-R, read-out: Minimum Inhibitory Concentration) was over 100 µg/mL, the MIC (P. acnes A21933; A21933, Anaerobe, CLDM-R, read-out: Minimum Inhibitory Concentration) was 1.6 µg/mL (≈ 2.7 µM) and the MIC (S. pneumoniae; 5 strains) was 0.2 µg/mL (≈ 0.337 µM). For the same compound, the MIC (N. gonorrhoeae; 4 strains) was 0.013 µg/mL (≈ 0.0219 µM), the MIC (N. meningitidus; 5 strains) was 0.013 µg/mL (≈ 0.0219 µM) and the MIC (H. influenzae(AMP-R); AMP-R, 3 strains) was 0.4 µg/mL (≈ 0.675 µM). It also gave an MIC (H. influenzae(AMP-S); AMP-S, 7 strains) of 0.1 µg/mL (≈ 0.169 µM), an ED50 (E. cloacae A9656) of 3.5 mg/kg and an ED50 (E. coli Juhl) of 0.16 mg/kg. It also gave an ED50 (P. aeruginosa A9843 [6]) of 12 mg/kg, an ED50 (Pr. mirabilis A9900) of 0.63 mg/kg and an ED50 (S. aureus BX-1633) of 15 mg/kg. For the same compound, the ED50 (S. aureus Smith) was 5 mg/kg.

`CC(C)(O/N=C(\C(=O)N[C@@H]1C(=O)N2C(C(=O)[O-])=C(C[n+]3ccccc3)CS[C@H]12)c1csc(N)n1)C(=O)O` [Ceftazidime, ceftazidime, reference compound] was tested, and the MIC ([1]; Staphylococcus aureus, read-out: Geometric Mean of MIC) was 12.5 µg/mL (≈ 22.9 µM), the MIC [2] was 0.066 µg/mL (≈ 0.121 µM) and the MIC [3] was 1.6 µg/mL (≈ 2.93 µM). For the same compound, the MIC [4] was 2.7 µg/mL (≈ 4.94 µM), the MIC (Ps. aeruginosa (Gn-III)) was 2 µg/mL (≈ 3.66 µM) and the MIC (P. mirabilis A9554; A9554, read-out: Minimum Inhibitory Concentration) was 0.05 µg/mL (≈ 0.0915 µM). For the same compound, the MIC (E. coli A15148; A15148, read-out: Minimum Inhibitory Concentration) was 0.4 µg/mL (≈ 0.732 µM), the MIC (K. pneumoniae A 9867; A9867, read-out: Minimum Inhibitory Concentration) was 6.3 µg/mL (≈ 11.5 µM) and the MIC (P. morganii A9553; A9553, read-out: Minimum Inhibitory Concentration) was 3.1 µg/mL (≈ 5.67 µM). It also gave an MIC (S. marcescens A20019; A20019, read-out: Minimum Inhibitory Concentration) of 0.1 µg/mL (≈ 0.183 µM), an MIC (P. aeruginosa A15150; A15150, read-out: Minimum Inhibitory Concentration) of 0.8 µg/mL (≈ 1.46 µM) and an MIC (P. aeruginosa A9843 [5]; A9843, read-out: Minimum Inhibitory Concentration) of 1.6 µg/mL (≈ 2.93 µM). It also gave an MIC (P. aeruginosa A20717; A20717, read-out: Minimum Inhibitory Concentration) of 6.3 µg/mL (≈ 11.5 µM), an MIC (B. fragilis A20928-1; A209281, read-out: Minimum Inhibitory Concentration) of 3.1 µg/mL (≈ 5.67 µM) and an MIC (B. fragilis A22021) of 12.5 µg/mL (≈ 22.9 µM). It also gave an MIC (B. fragilis A22693) of 12.5 µg/mL (≈ 22.9 µM), an MIC (B. fragilis A22695; A22695, read-out: Minimum Inhibitory Concentration) of 50 µg/mL (≈ 91.5 µM) and an MIC (B. fragilis A22533; A22533, read-out: Minimum Inhibitory Concentration) of over 100 µg/mL. It also gave an MIC (C. difficile A21675; A21675, read-out: Minimum Inhibitory Concentration) of over 100 µg/mL, an MIC (P. acnes A21933; A21933, read-out: Minimum Inhibitory Concentration) of 1.6 µg/mL (≈ 2.93 µM) and an MIC (S. pneumoniae) of 0.4 µg/mL (≈ 0.732 µM). It also gave an MIC (N. gonorrhoeae) of 0.1 µg/mL (≈ 0.183 µM), an MIC (N. meningitidus) of 0.1 µg/mL (≈ 0.183 µM) and an MIC (H. influenzae(AMP-R)) of 0.2 µg/mL (≈ 0.366 µM). It also gave an MIC (H. influenzae(AMP-S)) of 0.055 µg/mL (≈ 0.101 µM), an ED50 (E. cloacae A9656) of 3.5 mg/kg and an ED50 (E. coli Juhl) of 0.11 mg/kg. The ED50 (P. aeruginosa A9843 [6]) was 6 mg/kg, the ED50 (Pr. mirabilis A9900) was 0.9 mg/kg and the ED50 (S. aureus BX-1633) was 15 mg/kg. It also gave an ED50 (S. aureus Smith) of 10 mg/kg.
